Laboratory results taken from PubChem BioAssay (NCI).
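Method: 48-hour compound exposure of cells in 96-well plates, five concentrations, linear interpolation of endpoints. TGI: concentration producing complete growth inhibition.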

Columns and labels:
Assay in all cases: inhibition of tumour cell growth, NCI panel, 48 h
A549 NSCLC = test system: A549 NSCLC
PC-3 prostate = test system: PC-3 prostate
MOLT-4 leukemia = test system: MOLT-4 leukemia
SK-MEL-5 melanoma = test system: SK-MEL-5 melanoma
ACHN renal = test system: ACHN renal
RXF 393 renal = test system: RXF 393 renal
U251 CNS = test system: U251 CNS
UACC-257 melanoma = test system: UACC-257 melanoma
K-562 leukemia = test system: K-562 leukemia
DU-145 prostate = test system: DU-145 prostate
HS 578T breast = test system: HS 578T breast
BT-549 breast = test system: BT-549 breast
CAKI-1 renal = test system: CAKI-1 renal
SK-MEL-28 melanoma = test system: SK-MEL-28 melanoma
HL-60(TB) leukemia = test system: HL-60(TB) leukemia
NCI-H226 lung = test system: NCI-H226 lung
T-47D breast = test system: T-47D breast
OVCAR-3 ovarian = test system: OVCAR-3 ovarian
HCT-116 colon = test system: HCT-116 colon
NCI-H522 lung = test system: NCI-H522 lung
MCF7 breast = test system: MCF7 breast
M14 melanoma = test system: M14 melanoma
IGROV1 ovarian = test system: IGROV1 ovarian
CCRF-CEM leukemia = test system: CCRF-CEM leukemia
HCC-2998 colon = test system: HCC-2998 colon
MDA-MB-435 = test system: MDA-MB-435
SW-620 colon = test system: SW-620 colon
EKVX NSCLC = test system: EKVX NSCLC
OVCAR-8 ovarian = test system: OVCAR-8 ovarian
SF-295 CNS = test system: SF-295 CNS
MALME-3M melanoma = test system: MALME-3M melanoma
UACC-62 melanoma = test system: UACC-62 melanoma
UO-31 renal = test system: UO-31 renal
SNB-75 CNS = test system: SNB-75 CNS
NCI-H460 lung = test system: NCI-H460 lung
HT29 colon = test system: HT29 colon
TK-10 renal = test system: TK-10 renal
KM12 colon = test system: KM12 colon
COLO 205 colon = test system: COLO 205 colon
OVCAR-5 ovarian = test system: OVCAR-5 ovarian
MDA-MB-231 breast = test system: MDA-MB-231 breast
NCI-H23 lung = test system: NCI-H23 lung
SN12C renal = test system: SN12C renal
NCI/ADR-RES ovarian = test system: NCI/ADR-RES ovarian
786-0 renal = test system: 786-0 renal
RPMI-8226 leukemia = test system: RPMI-8226 leukemia
HOP-62 NSCLC = test system: HOP-62 NSCLC
SF-268 CNS = test system: SF-268 CNS
OVCAR-4 ovarian = test system: OVCAR-4 ovarian
SNB-19 CNS = test system: SNB-19 CNS
MDA-N = test system: MDA-N
SK-OV-3 ovarian = test system: SK-OV-3 ovarian
HCT-15 colon = test system: HCT-15 colon
SR leukemia = test system: SR leukemia
SF-539 CNS = test system: SF-539 CNS

## Cc1ccc(-n2[nH]nc(C(N)=O)c2=O)cc1
A549 NSCLC
  TGI: > 100 µM
PC-3 prostate
  TGI: > 100 µM
MOLT-4 leukemia
  TGI: > 100 µM
SK-MEL-5 melanoma
  TGI: > 100 µM
ACHN renal
  TGI: > 100 µM
RXF 393 renal
  TGI: > 100 µM
U251 CNS
  TGI: > 100 µM
UACC-257 melanoma
  TGI: > 100 µM
K-562 leukemia
  TGI: > 100 µM
DU-145 prostate
  TGI: > 100 µM
HS 578T breast
  TGI: > 100 µM
BT-549 breast
  TGI: > 100 µM
CAKI-1 renal
  TGI: > 100 µM
SK-MEL-28 melanoma
  TGI: > 100 µM
HL-60(TB) leukemia
  TGI: > 100 µM
NCI-H226 lung
  TGI: > 100 µM
T-47D breast
  TGI: > 100 µM
OVCAR-3 ovarian
  TGI: > 100 µM
HCT-116 colon
  TGI: > 100 µM
NCI-H522 lung
  TGI: > 100 µM
MCF7 breast
  TGI: > 100 µM
M14 melanoma
  TGI: > 100 µM
IGROV1 ovarian
  TGI: > 100 µM
CCRF-CEM leukemia
  TGI: > 100 µM
HCC-2998 colon
  TGI: > 100 µM
MDA-MB-435
  TGI: > 100 µM
SW-620 colon
  TGI: > 100 µM
EKVX NSCLC
  TGI: > 100 µM
OVCAR-8 ovarian
  TGI: > 100 µM
SF-295 CNS
  TGI: > 100 µM
MALME-3M melanoma
  TGI: > 100 µM
UACC-62 melanoma
  TGI: > 100 µM
UO-31 renal
  TGI: > 100 µM
SNB-75 CNS
  TGI: > 100 µM
NCI-H460 lung
  TGI: > 100 µM
HT29 colon
  TGI: > 100 µM
TK-10 renal
  TGI: > 100 µM
KM12 colon
  TGI: > 100 µM
COLO 205 colon
  TGI: > 100 µM
OVCAR-5 ovarian
  TGI: > 100 µM
MDA-MB-231 breast
  TGI: > 100 µM
NCI-H23 lung
  TGI: > 100 µM
SN12C renal
  TGI: > 100 µM
NCI/ADR-RES ovarian
  TGI: > 100 µM
786-0 renal
  TGI: > 100 µM
RPMI-8226 leukemia
  TGI: > 100 µM
HOP-62 NSCLC
  TGI: > 100 µM
SF-268 CNS
  TGI: > 100 µM
OVCAR-4 ovarian
  TGI: > 100 µM
SNB-19 CNS
  TGI: > 100 µM
MDA-N
  TGI: > 100 µM
SK-OV-3 ovarian
  TGI: > 100 µM
HCT-15 colon
  TGI: > 100 µM

## CCCCC1(NN=C2CCCCC2)C(=O)N(c2ccccc2)N(c2ccccc2)C1=O
A549 NSCLC
  TGI: > 100 µM
PC-3 prostate
  TGI: > 100 µM
MOLT-4 leukemia
  TGI: 66 µM
SR leukemia
  TGI: 32.2 µM
SK-MEL-5 melanoma
  TGI: > 100 µM
ACHN renal
  TGI: > 100 µM
RXF 393 renal
  TGI: > 100 µM
U251 CNS
  TGI: > 100 µM
UACC-257 melanoma
  TGI: > 100 µM
K-562 leukemia
  TGI: 64.9 µM
DU-145 prostate
  TGI: > 100 µM
HS 578T breast
  TGI: > 100 µM
BT-549 breast
  TGI: > 100 µM
CAKI-1 renal
  TGI: > 100 µM
SF-539 CNS
  TGI: > 100 µM
SK-MEL-28 melanoma
  TGI: > 100 µM
HL-60(TB) leukemia
  TGI: 38.4 µM
T-47D breast
  TGI: > 100 µM
OVCAR-3 ovarian
  TGI: > 100 µM
HCT-116 colon
  TGI: > 100 µM
NCI-H522 lung
  TGI: > 100 µM
MCF7 breast
  TGI: > 100 µM
M14 melanoma
  TGI: > 100 µM
IGROV1 ovarian
  TGI: > 100 µM
CCRF-CEM leukemia
  TGI: 40.7 µM
HCC-2998 colon
  TGI: > 100 µM
MDA-MB-435
  TGI: > 100 µM
SW-620 colon
  TGI: > 100 µM
EKVX NSCLC
  TGI: > 100 µM
OVCAR-8 ovarian
  TGI: > 100 µM
SF-295 CNS
  TGI: > 100 µM
UACC-62 melanoma
  TGI: > 100 µM
UO-31 renal
  TGI: > 100 µM
SNB-75 CNS
  TGI: > 100 µM
NCI-H460 lung
  TGI: > 100 µM
HT29 colon
  TGI: > 100 µM
TK-10 renal
  TGI: > 100 µM
KM12 colon
  TGI: > 100 µM
COLO 205 colon
  TGI: > 100 µM
MDA-MB-231 breast
  TGI: > 100 µM
NCI-H23 lung
  TGI: > 100 µM
SN12C renal
  TGI: > 100 µM
NCI/ADR-RES ovarian
  TGI: > 100 µM
786-0 renal
  TGI: > 100 µM
RPMI-8226 leukemia
  TGI: > 100 µM
HOP-62 NSCLC
  TGI: > 100 µM
SF-268 CNS
  TGI: > 100 µM
OVCAR-4 ovarian
  TGI: > 100 µM
SNB-19 CNS
  TGI: > 100 µM
MDA-N
  TGI: > 100 µM
SK-OV-3 ovarian
  TGI: > 100 µM
HCT-15 colon
  TGI: > 100 µM
